US20240148745A1, “COMPOUNDS FOR USE IN PROGRESSIVE MULTIPLE SCLEROSIS” (FONDAZIONE CENTRO SAN RAFFAELE, priority 2021, published 2024)

Key:
[1] = tested on: LPC lesions of MBP-deficient shiverer spinal cords transplanted with human iPSC-derived oligodendrocytes; test: Remyelination in LPC lesions of shiverer spinal cords grafted with hiOLs; assay type: in vivo, mouse; conditions: gavage during 8 or 10 wkpg
From the text: FIG. 48. In vivo results of Bavisant treatment on remyelination in LPC lesions of MBP-deficient shiverer spinal cords transplanted with human iPSC-derived oligodendrocytes. […] Exogenous myelin is detected by MBP and endogenous myelin by MOG.

[2] = tested on: human embryonic and fetal neural precursors (hufNPCs); test: hufNPC differentiation towards TUJ1+ neurons; assay type: cell-based; conditions: 1 μM, 7 days
Protocol: First, fresh human fetal brain tissues were mechanically dissociated, followed by enzymatic dissociation with Trypsin (LONZA (BE17-161E) 1:5) in growth medium for 5-10 min at 37° C., 5% O2 e 5% CO2, then washed with 10% Australian FBS in fresh medium and centrifuged 15 min at 200 g. Cells were plated in T25 flask in Neural stem cell growth medium (NeuroCult-XF Basal Medium (cat. #05760)+ NeuroCult-XF Proliferation supplement (cat. #05763) (for Human Neural Stem Cells) […] TECHNOLOGIES+human recombinant carrier-free EGF (cat. #1325 9510 00) and bFGF (cat. #1370 9505 00) (Provitro) at final concentration of 20 ng/ml) at 37° C., 5% O2 e 5% CO2. After 15-25 days, enzymatic (Accumax®, StarFish cat. #GMP-102470) dissociation of neurospheres or subconfluent adherent cells was performed and cells were re-plated at density (25000 cells/cm2) in NGM. […] Pro-differentiating properties of 160 compounds were evaluated by co-incubating freshly seeded in 96 well plate hufNPCs with 1 μM compounds for 7 days (each compound was tested in triplicate). […] After one week, cells were fixed and analyzed via immunocytochemistry. […] 15 images per well were acquired and analyzed by CellProfiler. Number of TUJ1+/DAPI cells was counted and compared to DMSO.
160 selected non-toxic compounds pro-differentiating properties were evaluated on human embryonic and fetal neural precursors (hufNPCs). […]

SMILES | remyelination potential of grafted hiOLs (MBP) [1] | neuronal differentiation (TUJ1+/DAPI cells vs DMSO) [2]
O=C(c1ccc(CN2CCOCC2)cc1)N1CCN(C2CC2)CC1 [Bavisant] | has the tendency to promote the remyelination potential of hiOLs | –
CC1(C)CCC(C)(C)c2cc(NC(=O)c3ccc(C(=O)O)cc3)ccc21 [Tamibarotene] | – | significantly promoted neuronal differentiation compared to DMSO and heparin
